Measurements as given in ChEMBL document CHEMBL1201862, “PubChem BioAssay data set” (2004).
Activity calls are given as the source filed them.

How the values were obtained:
Cytochrome P450 2D6 = Cytochrome P450 2D6 (Homo sapiens, UniProt P10635);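 note: CYP2D6 member of a cytochrome P450 panel assay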
Protein skinhead-1 = molecular target: T1, Protein skinhead-1 (Caenorhabditis elegans, UniProt P34707); format: functional
T1 sequence (P34707 whole entry): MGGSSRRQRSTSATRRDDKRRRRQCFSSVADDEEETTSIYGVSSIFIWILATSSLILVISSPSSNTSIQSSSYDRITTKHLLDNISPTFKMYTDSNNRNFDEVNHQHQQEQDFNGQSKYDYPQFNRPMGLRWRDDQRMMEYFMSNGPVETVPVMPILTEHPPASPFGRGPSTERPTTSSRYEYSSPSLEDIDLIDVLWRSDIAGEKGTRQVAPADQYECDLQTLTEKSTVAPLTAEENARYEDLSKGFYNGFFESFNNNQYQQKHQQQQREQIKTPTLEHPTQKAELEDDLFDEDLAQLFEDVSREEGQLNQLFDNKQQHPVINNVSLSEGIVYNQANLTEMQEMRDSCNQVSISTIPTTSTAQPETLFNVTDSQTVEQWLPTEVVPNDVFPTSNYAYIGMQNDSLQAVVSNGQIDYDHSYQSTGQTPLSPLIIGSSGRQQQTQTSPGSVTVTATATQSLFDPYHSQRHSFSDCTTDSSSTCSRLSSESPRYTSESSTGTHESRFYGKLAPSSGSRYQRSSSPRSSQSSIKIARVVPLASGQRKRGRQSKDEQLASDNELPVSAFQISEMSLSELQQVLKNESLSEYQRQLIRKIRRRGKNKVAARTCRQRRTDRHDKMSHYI

Fatty acid synthase [1] = molecular target: T2, Fatty acid synthase (Homo sapiens, UniProt P49327); test: FAS thioesterase domain inhibitors, dose response, biochemical, endpoint fluorescence intensity, uHTS hits (AID 624327); format: functional;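 note: fluorescence from hydrolysis of an O-methyl fluorescein acyl ester substrate by the enzyme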
Fatty acid synthase [2] = molecular target: T2, Fatty acid synthase; test: FAS thioesterase domain inhibitors, dose response, biochemical, kinetic fluorescence intensity (AID 624326); format: functional;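 note: rate of fluorescence rise from hydrolysis of a fluorogenic O-methyl fluorescein ester substrate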
[3] = molecular target: T3, Replicative DNA helicase DnaB (Mycobacterium tuberculosis, UniProt P9WMR3); test: DnaB intein splicing inhibitors, dose response, biochemical, cell-free fluorescence (AID 449749); format: functional
T3 sequence (P9WMR3 whole entry): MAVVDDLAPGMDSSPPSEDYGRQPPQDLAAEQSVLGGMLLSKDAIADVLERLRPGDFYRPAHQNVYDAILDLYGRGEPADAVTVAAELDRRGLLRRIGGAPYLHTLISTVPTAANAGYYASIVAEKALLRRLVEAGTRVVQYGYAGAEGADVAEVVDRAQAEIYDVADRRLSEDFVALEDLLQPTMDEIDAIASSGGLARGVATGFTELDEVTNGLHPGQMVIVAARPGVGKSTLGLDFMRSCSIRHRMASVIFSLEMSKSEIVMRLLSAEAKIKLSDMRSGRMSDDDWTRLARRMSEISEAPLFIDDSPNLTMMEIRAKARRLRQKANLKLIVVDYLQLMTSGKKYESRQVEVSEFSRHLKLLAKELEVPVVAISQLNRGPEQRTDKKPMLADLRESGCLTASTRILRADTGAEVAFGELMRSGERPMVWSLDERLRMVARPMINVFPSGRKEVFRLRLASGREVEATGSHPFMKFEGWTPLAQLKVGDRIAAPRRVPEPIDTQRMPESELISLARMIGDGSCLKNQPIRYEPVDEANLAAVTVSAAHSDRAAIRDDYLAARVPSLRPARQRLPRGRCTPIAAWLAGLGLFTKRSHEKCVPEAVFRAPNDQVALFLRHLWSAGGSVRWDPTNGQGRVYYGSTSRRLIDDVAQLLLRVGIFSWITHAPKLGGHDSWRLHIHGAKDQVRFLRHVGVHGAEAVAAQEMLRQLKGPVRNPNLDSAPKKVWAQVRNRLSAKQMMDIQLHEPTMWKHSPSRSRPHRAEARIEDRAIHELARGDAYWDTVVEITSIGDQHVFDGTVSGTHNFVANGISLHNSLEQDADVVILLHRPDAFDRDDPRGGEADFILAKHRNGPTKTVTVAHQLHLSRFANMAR

BJ [4] = test: cytotoxicity toward BJ-TERT-LT-ST fibroblasts, dose response, cell-based, RAS-independent, luminescence (AID 1935); format: functional; settings: Homo sapiens;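 note: BJ fibroblasts immortalized with TERT plus LT and ST oncogenes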
[5] = THP-1 cell cytotoxicity, dose response, cytotoxicity control for non-replicating M. tuberculosis project (AID 489025); format: functional
[6] = inhibitors of firefly luciferase expression or activity, dose response, H4 neuroglioma cells, luminescence (AID 1990); format: functional, cell-based
Protein RecA = molecular target: T4, Protein RecA (Mycobacterium tuberculosis, UniProt P9WHJ3); test: Fluorescence Cell-Free Homogeneous Dose Retest to Identify Inhibitors of RecA-Intein Splicing Activity. [Related pubchem assays (depositor defined):AID2097, AID2223, AID489010, AID492950]; format: functional
T4 sequence (P9WHJ3 whole entry): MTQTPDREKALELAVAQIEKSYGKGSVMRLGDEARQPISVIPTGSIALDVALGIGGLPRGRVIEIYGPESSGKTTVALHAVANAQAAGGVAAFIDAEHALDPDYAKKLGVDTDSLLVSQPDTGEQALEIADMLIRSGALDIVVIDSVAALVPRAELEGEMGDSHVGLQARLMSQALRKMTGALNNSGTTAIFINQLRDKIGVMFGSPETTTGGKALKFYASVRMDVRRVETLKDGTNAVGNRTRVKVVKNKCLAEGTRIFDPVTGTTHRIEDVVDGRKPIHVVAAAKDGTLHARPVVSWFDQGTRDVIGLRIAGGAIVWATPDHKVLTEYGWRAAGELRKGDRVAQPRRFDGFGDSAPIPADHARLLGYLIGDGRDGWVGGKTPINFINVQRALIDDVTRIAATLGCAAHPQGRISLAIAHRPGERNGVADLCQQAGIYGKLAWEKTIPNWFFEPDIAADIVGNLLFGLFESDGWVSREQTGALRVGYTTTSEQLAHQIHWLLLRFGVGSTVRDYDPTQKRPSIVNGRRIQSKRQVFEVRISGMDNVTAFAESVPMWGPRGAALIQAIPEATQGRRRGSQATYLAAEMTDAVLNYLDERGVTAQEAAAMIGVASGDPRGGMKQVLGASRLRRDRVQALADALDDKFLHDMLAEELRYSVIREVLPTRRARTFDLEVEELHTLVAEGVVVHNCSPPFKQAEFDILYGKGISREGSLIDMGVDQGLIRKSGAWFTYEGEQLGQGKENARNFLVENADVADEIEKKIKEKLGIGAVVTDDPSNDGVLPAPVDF

BJ [7] = test: cells; format: functional, cell-based; settings: Homo sapiens
[8] = Luminescence Cell-Based Dose Response HTS to Identify Inhibitors of 5'UTR Stem-Loop Driven Prion Protein mRNA Translation in H4 Neuroglioblastoma Cells. [Related pubchem assays: 1827 (Project Summary), 1813 (Primary HTS)]; format: functional
[9] = cytotoxicity toward DRD oncogenic fibroblasts, dose response, cell-based, non-viral oncogenic, luminescence (AID 1934); format: functional; settings: Homo sapiens
[10] = inhibitors of SNCA 5'UTR-driven reporter translation, confirmation, H4 neuroglioma cells, luminescence (AID 1988); format: functional, cell-based
[11] = Luminescence Cell-Based Dose Confirmation HTS to Identify Inhibitors of Platelet Dense Granule Release. [Related pubchem assays: 1663 (Primary HTS), 1678 (Summary of Project)]; format: functional
[12] = molecular target: Luciferin 4-monooxygenase (Photinus pyralis, UniProt P08659); test: firefly luciferase enzyme inhibitors, dose response, biochemical, luminescence (AID 1891)
BJ [13] = test: cytotoxicity toward BJ-TERT fibroblasts, dose response, cell-based, RAS-independent, luminescence (AID 1933); format: functional; settings: Homo sapiens
cells = format: functional
[14] = tested on: Streptococcus sp. 'group A'; test: growth inhibition of control SK(-) GAS strain, dose response, counter-screen for streptokinase expression inhibitor project, luminescence, kanamycin, BacTiterGlo, confirmation (AID 1900); format: functional, organism-based
Streptococcus = test: Group A Streptococcus viability loss, dose response, counter-screen for streptokinase expression inhibitor project, luminescence, BacTiterGlo (AID 1915); format: functional, organism-based;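 note: potency for reduction of bacterial viability or growth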
H9c2 = test: cells; format: functional, cell-based; settings: Rattus norvegicus, H9c2, Myocardium;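 note: confirmatory concentration-response retest of ultra-high-throughput screening hits for modulation of myocardial damage; cell death induced by hydrogen peroxide oxidative stress; compound pretreatment for 60 min then peroxide exposure for 2 h; potency is for protecting the cells against peroxide damage rather than for killing them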
HEK293 = test: inhibitors of LMP1-driven NF-kB reporter, dose response, cell-based, HEK293, luciferase, cherry-pick (AID 588343); format: functional, Homo sapiens; settings: Homo sapiens, HEK293

T2 sequence (P49327 whole entry, the tested form may be a part): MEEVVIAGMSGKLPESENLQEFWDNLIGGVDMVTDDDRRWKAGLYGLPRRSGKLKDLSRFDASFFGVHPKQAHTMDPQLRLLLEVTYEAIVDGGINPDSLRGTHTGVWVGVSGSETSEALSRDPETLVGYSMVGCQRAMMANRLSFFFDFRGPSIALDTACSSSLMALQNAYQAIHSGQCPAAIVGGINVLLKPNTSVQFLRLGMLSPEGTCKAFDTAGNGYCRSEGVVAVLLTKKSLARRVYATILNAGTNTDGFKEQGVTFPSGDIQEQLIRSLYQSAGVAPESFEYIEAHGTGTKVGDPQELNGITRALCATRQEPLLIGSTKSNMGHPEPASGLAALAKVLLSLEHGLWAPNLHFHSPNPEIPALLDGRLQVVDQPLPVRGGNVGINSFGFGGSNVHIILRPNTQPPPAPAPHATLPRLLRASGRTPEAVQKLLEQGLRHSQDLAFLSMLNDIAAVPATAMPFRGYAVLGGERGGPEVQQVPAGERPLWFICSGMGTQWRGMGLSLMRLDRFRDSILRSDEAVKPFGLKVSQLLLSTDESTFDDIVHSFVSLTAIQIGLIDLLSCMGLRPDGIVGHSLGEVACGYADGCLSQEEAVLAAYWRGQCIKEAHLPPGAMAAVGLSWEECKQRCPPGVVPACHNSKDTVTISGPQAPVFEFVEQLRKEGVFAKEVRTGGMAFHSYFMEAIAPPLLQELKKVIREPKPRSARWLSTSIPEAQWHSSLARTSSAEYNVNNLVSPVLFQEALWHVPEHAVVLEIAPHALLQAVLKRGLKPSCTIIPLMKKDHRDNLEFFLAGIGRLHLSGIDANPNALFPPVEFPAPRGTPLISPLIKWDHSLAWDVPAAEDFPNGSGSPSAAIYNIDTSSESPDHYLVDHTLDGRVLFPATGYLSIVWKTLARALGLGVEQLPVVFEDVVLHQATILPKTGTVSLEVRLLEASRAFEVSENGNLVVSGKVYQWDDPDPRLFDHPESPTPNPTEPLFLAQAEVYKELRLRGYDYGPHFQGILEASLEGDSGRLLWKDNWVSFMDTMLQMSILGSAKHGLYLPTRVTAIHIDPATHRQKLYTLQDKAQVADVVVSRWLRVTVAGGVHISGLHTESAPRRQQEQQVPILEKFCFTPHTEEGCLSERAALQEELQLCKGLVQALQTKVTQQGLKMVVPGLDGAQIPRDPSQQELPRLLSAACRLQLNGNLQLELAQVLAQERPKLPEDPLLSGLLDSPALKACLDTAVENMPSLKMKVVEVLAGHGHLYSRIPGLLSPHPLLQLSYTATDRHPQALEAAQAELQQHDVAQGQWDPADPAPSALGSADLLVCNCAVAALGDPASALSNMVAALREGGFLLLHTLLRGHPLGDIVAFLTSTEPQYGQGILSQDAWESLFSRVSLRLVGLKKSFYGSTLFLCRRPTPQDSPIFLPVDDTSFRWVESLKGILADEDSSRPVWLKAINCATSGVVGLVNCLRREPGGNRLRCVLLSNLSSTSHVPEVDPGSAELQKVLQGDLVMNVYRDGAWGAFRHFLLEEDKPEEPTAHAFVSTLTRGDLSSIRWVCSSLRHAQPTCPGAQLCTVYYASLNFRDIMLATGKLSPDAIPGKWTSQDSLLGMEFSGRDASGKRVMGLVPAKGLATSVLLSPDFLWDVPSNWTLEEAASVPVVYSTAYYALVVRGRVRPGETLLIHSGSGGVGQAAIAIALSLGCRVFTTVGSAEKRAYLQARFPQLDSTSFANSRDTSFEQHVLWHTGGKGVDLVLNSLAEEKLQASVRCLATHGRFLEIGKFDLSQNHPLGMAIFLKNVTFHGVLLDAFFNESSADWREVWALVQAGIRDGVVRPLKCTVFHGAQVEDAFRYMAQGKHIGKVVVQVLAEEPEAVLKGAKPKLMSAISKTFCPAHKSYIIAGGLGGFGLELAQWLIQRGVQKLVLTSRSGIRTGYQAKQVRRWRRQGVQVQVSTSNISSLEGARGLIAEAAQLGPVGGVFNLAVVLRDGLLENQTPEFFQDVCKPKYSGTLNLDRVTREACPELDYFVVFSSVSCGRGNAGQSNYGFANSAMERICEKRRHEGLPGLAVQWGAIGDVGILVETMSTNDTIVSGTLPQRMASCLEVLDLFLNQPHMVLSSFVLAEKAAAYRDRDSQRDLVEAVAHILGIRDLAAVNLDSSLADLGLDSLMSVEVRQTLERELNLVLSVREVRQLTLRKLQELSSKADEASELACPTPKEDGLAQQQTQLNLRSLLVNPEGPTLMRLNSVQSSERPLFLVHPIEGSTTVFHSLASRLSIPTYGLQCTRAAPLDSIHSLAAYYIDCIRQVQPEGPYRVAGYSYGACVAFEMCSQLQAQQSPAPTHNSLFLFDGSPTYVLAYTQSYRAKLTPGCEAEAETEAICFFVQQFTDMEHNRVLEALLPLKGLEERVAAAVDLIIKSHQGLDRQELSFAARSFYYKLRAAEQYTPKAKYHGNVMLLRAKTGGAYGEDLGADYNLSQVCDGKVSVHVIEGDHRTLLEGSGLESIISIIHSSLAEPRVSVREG
Sequence of Cytochrome P450 2D6 (P10635 whole entry): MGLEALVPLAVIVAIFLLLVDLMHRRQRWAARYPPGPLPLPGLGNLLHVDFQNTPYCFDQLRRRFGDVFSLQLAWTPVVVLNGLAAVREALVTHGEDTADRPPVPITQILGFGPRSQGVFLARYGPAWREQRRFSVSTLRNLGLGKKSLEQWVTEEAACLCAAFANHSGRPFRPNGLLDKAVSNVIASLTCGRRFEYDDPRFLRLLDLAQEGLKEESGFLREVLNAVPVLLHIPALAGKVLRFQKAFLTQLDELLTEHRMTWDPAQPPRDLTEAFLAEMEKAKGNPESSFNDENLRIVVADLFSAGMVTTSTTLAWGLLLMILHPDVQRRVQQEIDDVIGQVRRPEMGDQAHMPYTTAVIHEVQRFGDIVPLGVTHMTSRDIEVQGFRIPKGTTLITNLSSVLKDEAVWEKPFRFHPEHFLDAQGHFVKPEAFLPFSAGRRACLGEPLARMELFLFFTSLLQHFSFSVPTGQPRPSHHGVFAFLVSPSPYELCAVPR
Sequence of Luciferin 4-monooxygenase (P08659 whole entry): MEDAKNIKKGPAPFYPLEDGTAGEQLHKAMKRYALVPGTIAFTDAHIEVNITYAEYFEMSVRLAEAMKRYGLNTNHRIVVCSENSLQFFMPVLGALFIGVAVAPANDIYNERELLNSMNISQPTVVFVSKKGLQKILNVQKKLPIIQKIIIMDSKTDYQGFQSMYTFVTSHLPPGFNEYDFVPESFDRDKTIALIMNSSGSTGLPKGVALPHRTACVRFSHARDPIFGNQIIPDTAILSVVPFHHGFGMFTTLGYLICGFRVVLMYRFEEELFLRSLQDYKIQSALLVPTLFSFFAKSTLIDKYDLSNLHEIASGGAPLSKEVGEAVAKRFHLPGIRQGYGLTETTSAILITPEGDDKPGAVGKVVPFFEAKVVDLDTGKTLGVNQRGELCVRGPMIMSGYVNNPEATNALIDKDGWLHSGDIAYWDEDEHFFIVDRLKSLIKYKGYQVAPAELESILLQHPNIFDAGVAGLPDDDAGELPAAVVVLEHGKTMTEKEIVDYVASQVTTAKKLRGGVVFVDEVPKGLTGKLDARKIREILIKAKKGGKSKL

SMILES: C=CCNc1nc(-c2ccc(Cl)cc2)cs1
- AC50 (Cytochrome P450 2D6): 25.1 µM (inconclusive)
- IC50 (Protein skinhead-1): > 100 µM (inactive)

SMILES: Cc1cccc(Cn2c(Sc3nc(C)cs3)nc3c2c(=O)[nH]c(=O)n3C)c1
- IC50 (Protein skinhead-1): > 100 µM (inactive)

SMILES: Cc1ccc([N+](=O)[O-])cc1N=C(S)NCCc1ccccc1
- IC50 (Fatty acid synthase [1]): 12.1 µM (active)
- IC50 (Fatty acid synthase [2]): 13.1 µM (active)

SMILES: O=C(Nc1ncc([N+](=O)[O-])s1)c1ccc2c(c1)OCO2
- AC50 [3]: 21.2 µM (active)
- EC50 (BJ [4]): > 150 µM (inconclusive)
- CC50 [5]: 28.9 µM (active)
- EC50 [6]: 4.23 µM (active)
- EC50 (Protein RecA): 16.5 µM (active)
- EC50 (BJ [7]): 13.5 µM (active)
- EC50 [8]: 7.3 µM (active)
- EC50 [9]: 10.3 µM (active)
- EC50 [10]: 3.42 µM (active)
- EC50 [11]: 2.39 µM (active)
- EC50 [12]: 0.324 µM (active)
- EC50 (BJ [13]): 14.1 µM (active)
- IC50 (cells): 34.4 µM (active)

SMILES: O=C(Nc1nnc(-c2ccco2)o1)c1ccc(Cl)s1
- CC50 [5]: > 40 µM (active)
- EC50 [14]: 3.01 µM (active)
- IC50 (cells): 1.57 µM (active)
- EC50 (Streptococcus): 10.1 µM (active)

SMILES: COc1ccc(C2CC(c3cccs3)n3nc(N)nc3N2)cc1 (stereo not drawn)
- IC50 (H9c2): > 79 µM (inactive)

SMILES: COC(=O)c1cccc(S(=O)(=O)N(Cc2ccco2)Cc2cc3cc(OC)ccc3nc2O)c1
- IC50 (H9c2): 31.7 µM (inactive)

SMILES: Cc1cc2cc(CN(Cc3ccco3)S(=O)(=O)c3c(C)ccc4nsnc34)c(O)nc2cc1C
- AC50 (HEK293): 0.968 µM (active)

SMILES: CC(C)(C)OC(=O)CNC(=O)c1[nH]cnc1C(=O)NCC(=O)OCc1ccccc1
- IC50 (H9c2): > 79 µM (inactive)

SMILES: CC(C)c1ccc(NC(=O)NCc2cccnc2)cc1
- IC50 (Protein skinhead-1): > 100 µM (inactive)

SMILES: O=C(Cn1c(=O)c2sccc2n(Cc2ccc([N+](=O)[O-])cc2)c1=O)NCCc1ccccc1
- IC50 (Fatty acid synthase [1]): 5.6 µM (active)
- IC50 (Fatty acid synthase [2]): 4.79 µM (active)

SMILES: COc1ccc(NC(=O)N(CCCN(C)C)Cc2cc3cc(OC)ccc3nc2O)cc1
- IC50 (H9c2): > 79 µM (inactive)

SMILES: O=C1C2CCCN2c2ccc(S(=O)(=O)N3CCOCC3)cc2N1Cc1ccccc1F (stereo not drawn)
- AC50 (HEK293): > 350 µM (inactive)

SMILES: Cc1c(Cl)c([N+](=O)[O-])nn1CCCC(=O)Nc1cccc(Cl)c1
- IC50 (Fatty acid synthase [1]): 17.6 µM (active)
- IC50 (Fatty acid synthase [2]): 16.2 µM (active)
